Earlier results in patent US10293012B2 (priority 2017, dated 2019).

System: HSV1

**Q.** For heparin [Soluble heparin], which “inhibition of HSV1 infection” value is on record?
**A.** The value was “competitively inhibit”.
